# ChEMBL document CHEMBL4364344, “Design, synthesis and evaluation of activity and pharmacokinetic profile of new derivatives of xanthone and piperazine in the central nervous system” (Bioorg Med Chem Lett, 2019)
# Experiments:
# [1] = target: Beta-2 adrenergic receptor (Homo sapiens) (UniProt P07550); experiment: Displacement of [3H](-)CGP 12177 from recombinant human beta 2 receptor at 10 uM after 120 mins by radiometric scintillation analysis relative to control
# [2] = target: Kappa-type opioid receptor (Homo sapiens) (UniProt P41145); experiment: Displacement of [3H]U69593 from human KOR receptor at 10 uM after 60 mins by radiometric scintillation analysis relative to control
# Kappa-type opioid receptor (Homo sapiens), sequence (P41145 whole entry): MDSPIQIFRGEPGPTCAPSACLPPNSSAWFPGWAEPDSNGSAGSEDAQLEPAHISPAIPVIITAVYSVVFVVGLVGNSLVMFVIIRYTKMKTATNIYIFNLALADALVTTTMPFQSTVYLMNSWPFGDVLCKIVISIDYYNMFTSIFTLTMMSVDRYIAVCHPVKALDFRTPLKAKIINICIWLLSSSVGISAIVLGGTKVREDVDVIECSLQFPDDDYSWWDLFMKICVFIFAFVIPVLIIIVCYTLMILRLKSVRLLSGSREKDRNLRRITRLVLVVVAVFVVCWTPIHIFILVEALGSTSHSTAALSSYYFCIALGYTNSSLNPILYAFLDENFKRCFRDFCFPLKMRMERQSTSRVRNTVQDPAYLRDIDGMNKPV
# [3] = target: 5-hydroxytryptamine receptor 1B (Homo sapiens) (UniProt P28222); experiment: Displacement of [3H]GR125743 from recombinant human 5-HT1B receptor at 10 uM after 60 mins by radiometric scintillation analysis relative to control
# 5-hydroxytryptamine receptor 1B (Homo sapiens), sequence (P28222 whole entry): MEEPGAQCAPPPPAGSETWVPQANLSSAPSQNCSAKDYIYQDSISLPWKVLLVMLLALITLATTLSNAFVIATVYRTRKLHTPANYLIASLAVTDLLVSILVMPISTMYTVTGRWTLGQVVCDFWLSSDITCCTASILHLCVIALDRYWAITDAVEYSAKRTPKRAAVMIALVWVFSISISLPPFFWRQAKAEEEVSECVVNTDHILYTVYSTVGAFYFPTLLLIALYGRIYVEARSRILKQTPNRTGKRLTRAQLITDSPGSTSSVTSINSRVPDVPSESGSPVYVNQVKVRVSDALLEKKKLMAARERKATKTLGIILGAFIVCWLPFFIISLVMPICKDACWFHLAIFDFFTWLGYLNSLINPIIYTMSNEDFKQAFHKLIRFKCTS
# [4] = target: Sodium-dependent serotonin transporter (Homo sapiens) (UniProt P31645); experiment: Displacement of [3H]imipramine recombinant human 5-HT transporter at 10 uM after 60 mins by radiometric scintillation analysis relative to control
# Sodium-dependent serotonin transporter (Homo sapiens), sequence (P31645 whole entry, looked up): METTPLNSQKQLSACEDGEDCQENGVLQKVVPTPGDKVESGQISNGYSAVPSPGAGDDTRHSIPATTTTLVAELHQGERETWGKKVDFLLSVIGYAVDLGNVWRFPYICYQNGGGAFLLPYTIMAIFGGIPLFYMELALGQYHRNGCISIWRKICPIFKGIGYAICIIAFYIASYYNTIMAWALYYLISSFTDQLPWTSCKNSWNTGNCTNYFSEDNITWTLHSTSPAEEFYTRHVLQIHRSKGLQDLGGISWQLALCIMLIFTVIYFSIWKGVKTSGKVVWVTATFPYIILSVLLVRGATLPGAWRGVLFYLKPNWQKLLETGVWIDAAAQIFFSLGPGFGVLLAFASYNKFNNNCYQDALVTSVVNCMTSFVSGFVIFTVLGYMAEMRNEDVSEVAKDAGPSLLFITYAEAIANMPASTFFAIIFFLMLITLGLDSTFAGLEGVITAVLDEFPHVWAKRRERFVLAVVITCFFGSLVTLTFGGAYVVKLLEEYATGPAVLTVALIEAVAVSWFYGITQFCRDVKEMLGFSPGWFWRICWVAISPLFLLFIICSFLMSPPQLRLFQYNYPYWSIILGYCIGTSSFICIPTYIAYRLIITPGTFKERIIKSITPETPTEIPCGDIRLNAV
# [5] = species on record: Rattus norvegicus; experiment: Displacement of [3H]-Flumazenil from GABAA/BZD receptor in rat cortical membranes incubated for 60 mins by radioligand binding assay relative to control; format: cell membranes
# [6] = AUC (0 to total) in CD-1 mouse brain at 5 mg/kg, ip measured up to 480 mins by LC/ESI-MS/MS analysis; format: ADME, organism-based; settings: in vivo, 8 h
# [7] = target: Sodium-dependent dopamine transporter (Homo sapiens) (UniProt Q01959); experiment: Displacement of [3H]BTCP recombinant human dopamine transporter at 10 uM after 120 mins by radiometric scintillation analysis relative to control
# Sodium-dependent dopamine transporter (Homo sapiens), sequence (Q01959 whole entry): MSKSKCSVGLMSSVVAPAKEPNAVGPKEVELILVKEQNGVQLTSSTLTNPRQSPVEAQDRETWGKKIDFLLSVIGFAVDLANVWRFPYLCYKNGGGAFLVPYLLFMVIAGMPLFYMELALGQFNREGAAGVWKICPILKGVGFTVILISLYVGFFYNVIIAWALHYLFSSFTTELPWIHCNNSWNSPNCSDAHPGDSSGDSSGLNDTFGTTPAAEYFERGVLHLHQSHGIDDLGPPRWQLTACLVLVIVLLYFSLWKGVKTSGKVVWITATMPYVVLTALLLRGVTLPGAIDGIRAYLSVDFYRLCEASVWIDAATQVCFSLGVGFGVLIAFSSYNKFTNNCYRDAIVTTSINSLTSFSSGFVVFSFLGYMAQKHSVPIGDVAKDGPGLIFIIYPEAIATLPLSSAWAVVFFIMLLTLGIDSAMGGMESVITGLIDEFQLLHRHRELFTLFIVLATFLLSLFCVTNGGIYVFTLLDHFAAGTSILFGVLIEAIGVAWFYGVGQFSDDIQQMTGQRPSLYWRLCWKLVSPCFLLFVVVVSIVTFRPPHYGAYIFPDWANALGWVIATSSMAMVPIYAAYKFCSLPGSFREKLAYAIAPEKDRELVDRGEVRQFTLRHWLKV
# [8] = Apparent clearance in CD-1 mouse plasma at 5 mg/kg, ip measured up to 480 mins by LC/ESI-MS/MS analysis; format: ADME, organism-based
# [9] = target: Galanin receptor type 2 (Homo sapiens) (UniProt O43603); experiment: Displacement of [125I]galanin from recombinant human GAL2 receptor at 10 uM after 120 mins by radiometric scintillation analysis relative to control
# Galanin receptor type 2 (Homo sapiens), sequence (O43603 whole entry): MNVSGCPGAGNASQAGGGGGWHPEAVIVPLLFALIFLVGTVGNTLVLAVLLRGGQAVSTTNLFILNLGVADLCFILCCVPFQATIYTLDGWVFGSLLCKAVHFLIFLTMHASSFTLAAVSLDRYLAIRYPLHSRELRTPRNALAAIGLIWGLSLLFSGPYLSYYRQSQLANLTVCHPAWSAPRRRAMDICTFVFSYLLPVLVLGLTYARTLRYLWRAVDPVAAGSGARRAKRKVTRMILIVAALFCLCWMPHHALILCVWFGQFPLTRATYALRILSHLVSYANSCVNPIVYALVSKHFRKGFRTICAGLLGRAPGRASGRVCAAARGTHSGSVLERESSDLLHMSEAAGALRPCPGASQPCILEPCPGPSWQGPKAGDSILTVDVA
# [10] = target: D(1A) dopamine receptor (Homo sapiens) (UniProt P21728); experiment: Displacement of [3H]SCH 23390 from recombinant human D1 dopamine receptor at 10 uM after 60 mins by radiometric scintillation analysis relative to control
# D(1A) dopamine receptor (Homo sapiens), sequence (P21728 whole entry): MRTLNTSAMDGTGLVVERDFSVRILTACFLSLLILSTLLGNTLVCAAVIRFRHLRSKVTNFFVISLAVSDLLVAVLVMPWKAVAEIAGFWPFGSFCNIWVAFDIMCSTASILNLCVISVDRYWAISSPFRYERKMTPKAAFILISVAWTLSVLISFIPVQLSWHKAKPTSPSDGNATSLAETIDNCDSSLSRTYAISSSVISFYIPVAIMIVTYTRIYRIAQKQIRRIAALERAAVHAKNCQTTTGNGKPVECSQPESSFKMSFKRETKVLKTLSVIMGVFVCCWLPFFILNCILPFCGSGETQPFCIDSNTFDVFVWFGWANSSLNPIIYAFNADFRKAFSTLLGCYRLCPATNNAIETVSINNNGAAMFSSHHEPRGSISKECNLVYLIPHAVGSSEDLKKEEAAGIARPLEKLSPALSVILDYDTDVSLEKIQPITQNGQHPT
# [11] = target: Adenosine receptor A1 (Homo sapiens) (UniProt P30542); experiment: Displacement of [3H]DPCPX from recombinant human A1 receptor at 10 uM after 60 mins by radiometric scintillation analysis relative to control
# Adenosine receptor A1 (Homo sapiens), sequence (P30542 whole entry): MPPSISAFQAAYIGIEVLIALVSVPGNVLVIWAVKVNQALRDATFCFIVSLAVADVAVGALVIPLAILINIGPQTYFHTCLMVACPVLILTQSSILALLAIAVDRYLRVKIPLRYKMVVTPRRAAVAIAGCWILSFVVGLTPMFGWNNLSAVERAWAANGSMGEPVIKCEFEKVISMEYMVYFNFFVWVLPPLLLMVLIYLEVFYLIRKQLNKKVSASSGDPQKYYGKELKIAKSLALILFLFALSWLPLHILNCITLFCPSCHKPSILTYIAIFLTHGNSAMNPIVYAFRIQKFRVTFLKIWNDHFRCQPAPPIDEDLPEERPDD
# [12] = tested on: Mus musculus; experiment: Anxiolytic activity in albino Swiss CD-1 mouse assessed as increase in number of punished crossings at 10 mg/kg, ip administered 30 mins prior to test by four-plate test relative to control; format: functional
# [13] = Tmax in CD-1 mouse brain at 5 mg/kg, ip measured up to 480 mins by LC/ESI-MS/MS analysis; format: ADME, organism-based
# [14] = target: Substance-K receptor (Homo sapiens) (UniProt P21452); experiment: Displacement of [125I]NKA from recombinant human NK2 receptor at 10 uM after 60 mins by radiometric scintillation analysis relative to control
# Substance-K receptor (Homo sapiens), sequence (P21452 whole entry): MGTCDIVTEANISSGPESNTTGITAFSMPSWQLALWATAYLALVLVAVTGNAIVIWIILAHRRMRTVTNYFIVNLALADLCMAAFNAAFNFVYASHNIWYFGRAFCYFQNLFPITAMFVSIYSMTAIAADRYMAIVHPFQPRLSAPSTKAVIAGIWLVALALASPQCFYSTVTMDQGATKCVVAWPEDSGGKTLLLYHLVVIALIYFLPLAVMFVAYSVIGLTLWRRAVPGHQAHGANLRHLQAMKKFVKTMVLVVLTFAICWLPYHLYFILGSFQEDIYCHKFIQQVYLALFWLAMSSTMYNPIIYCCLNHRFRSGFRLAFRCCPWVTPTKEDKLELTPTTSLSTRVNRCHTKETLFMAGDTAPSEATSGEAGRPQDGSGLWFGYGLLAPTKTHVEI
# [15] = Mutagenicity in Salmonella typhimurium TA98 at 50 ug/plate preincubated for 20 mins followed by addition of top agar and measured after 48 hrs by Ames test; format: toxicity; settings: salmonella enterica subsp. enterica serovar typhimurium
# [16] = target: Adrenergic receptor alpha-1 (Rattus norvegicus) (UniProt P15823+P23944+P43140); experiment: Displacement of [3H]prazosin from rat brain alpha 1 receptor at 10 uM after 60 mins by radiometric scintillation analysis relative to control
# [17] = species on record: Rattus norvegicus; experiment: Displacement of [125I]alpha-dendrotoxin rat brain voltage-gated potassium channel at 10 uM after 60 mins by radiometric scintillation analysis relative to control
# Beta-2 adrenergic receptor (Homo sapiens), sequence (P07550 whole entry, looked up): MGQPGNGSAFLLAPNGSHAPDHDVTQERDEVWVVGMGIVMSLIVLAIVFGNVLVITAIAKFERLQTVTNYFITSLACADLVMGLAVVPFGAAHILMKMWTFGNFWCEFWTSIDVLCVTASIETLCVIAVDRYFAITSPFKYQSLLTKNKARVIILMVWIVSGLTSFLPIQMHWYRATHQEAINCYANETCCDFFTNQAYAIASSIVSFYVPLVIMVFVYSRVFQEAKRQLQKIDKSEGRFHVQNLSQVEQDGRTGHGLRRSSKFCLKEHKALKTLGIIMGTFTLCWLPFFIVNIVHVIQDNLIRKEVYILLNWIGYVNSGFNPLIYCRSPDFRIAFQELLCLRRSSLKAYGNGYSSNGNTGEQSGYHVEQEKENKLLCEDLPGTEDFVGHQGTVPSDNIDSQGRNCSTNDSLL
smiles,measurement,setting,value
Cl.Cl.O=c1c2cc(Cl)ccc2oc2ccc(CN3CCN(CCOCCO)CC3)cc12,inhibition,[1],3.7%
same,inhibition,[2],12.2%
same,inhibition,[3],32.7%
same,inhibition,[4],24.8%
same,inhibition,[5],9.4%
same,AUCt,[6],3227321 ng·min/g
same,inhibition,[7],28.7%
same,CL/F,[8],12.2 mL/min/kg
same,inhibition,[9],1.4%
same,inhibition,[10],8.9%
same,inhibition,[11],0.6%
same,Activity,[12],50.1%
same,Tmax,[13],30 min
same,inhibition,[14],49.4%
same,Activity_index,[15],0.76
same,inhibition,[16],8.5%
same,inhibition,[17],-3.1%
